One experiment concerns the target EGFR (ErbB1) (Homo sapiens (Human), UniProt P00533). The experiment is described as follows: Z'-LYTE kinase inhibition assay, EGFR. The following applies: read-out: % inhibition against EGFR (Compound at 0.041 μM). It counts as biochemical. As for the experimental part: Inhibitory activities of compounds against BTK, EGFR and EGFR mutants (EGFR L858R, EGFR T790M, EGFR L858R/T790M), FGFR1, FGFR2, JAK2, JAK3 and KDR were measured by Invitrogen using Z'-LYTE® Method as briefly described in the following. Test Compounds are screened in 1% DMSO (final) in the well. For 10 point titrations, 3-fold serial dilutions are conducted from the starting concentration. All ATP Solutions are diluted to a 4× working concentration in Kinase Buffer (50 mM HEPES pH 7.5, 0.01% BRIJ-35, 10 mM MgCl2, 1 mM EGTA). Peptide/Kinase Mixtures are diluted to a 2× working concentration in the appropriate Kinase Buffers as described below. (i) Peptide/Kinase Mixtures for Measurement of EGFR (ErbB1): The 2×EGFR (ErbB1)/[…] mixture is prepared in 50 mM HEPES pH 7.5, 0.01% BRIJ-35, 10 mM MgCl2. 4 mM MnCl2, 1 mM EGTA, 2 mM DTT. The final 10 μL Kinase Reaction consists of 1.1-5.25 ng EGFR (ErbB1) and 2 μM […] in 50 mM HEPES pH 7.5, 0.01% BRIJ-35, 10 mM MgCl2, 2 mM MnCl2. 1 mM EGTA, 1 mM DTT. After the 1 hour Kinase Reaction incubation, 5 μL of a 1:64 dilution of Development Reagent B is added. Reaction starts by 30-second shaking of mixture consisting of 2.5 μL 4× test compound, […] 2× kinase reaction mixture and 2.5 μL 4×ATP Solution on Bar-coded Corning, low volume NBS, black 384-well plate (Corning Cat. #3676). Then the mixture is incubated for 60-minute at room temperature for the kinase reaction, followed by addition of 5 μL of a 1:1024 dilution of development reagent A and 30-second plate shake. The mixture is then incubated for another 60-minute at room temperature for development reaction. Finally fluorescence is read by plate reader. To determine IC50 of a compound against EGFR, EGFR mutant and other kinases, a series of concentrations of the compound were tested for the inhibition.

The target of the next experiment is EGFR (ErbB1) T790M L858R (Homo sapiens (Human), UniProt P00533, L858R/T790M). The experiment is described as follows: Z'-LYTE kinase inhibition assay, EGFR L858R/T790M. The following applies: for inhibition at 0.0137 µM: read-out: % inhibition against EGFR L858R/T790M (Compound at 0.0137 μM). It counts as biochemical. On the procedure: Inhibitory activities of compounds against BTK, EGFR and EGFR mutants (EGFR L858R, EGFR T790M, EGFR L858R/T790M), FGFR1, FGFR2, JAK2, JAK3 and KDR were measured by Invitrogen using Z'-LYTE® Method as briefly described in the following. Test Compounds are screened in 1% DMSO (final) in the well. For 10 point titrations, 3-fold serial dilutions are conducted from the starting concentration. All ATP Solutions are diluted to a 4× working concentration in Kinase Buffer (50 mM HEPES pH 7.5, 0.01% BRIJ-35, 10 mM MgCl2, 1 mM EGTA). Peptide/Kinase Mixtures are diluted to a 2× working concentration in the appropriate Kinase Buffers as described below. (iv) Peptide/Kinase Mixtures for Measurement of EGFR (ErbB1) T790M L858R: The 2×EGFR (ErbB1) […] mixture is prepared in 50 mM HEPES pH 6.5, 0.01% BRIJ-35, 10 mM MgCl2, 1 mM EGTA, 0.02% NaN3. […] After the 1 hour Kinase Reaction incubation, 5 μL of a 1:64 dilution of Development Reagent B is added. Reaction starts by 30-second shaking of mixture consisting of 2.5 μL 4× test compound, […] 2× kinase reaction mixture and 2.5 μL 4×ATP Solution on Bar-coded Corning, low volume NBS, black 384-well plate (Corning Cat. #3676). Then the mixture is incubated for 60-minute at room temperature for the kinase reaction, followed by addition of 5 μL of a 1:1024 dilution of development reagent A and 30-second plate shake. The mixture is then incubated for another 60-minute at room temperature for development reaction. Finally fluorescence is read by plate reader. To determine IC50 of a compound against EGFR, EGFR mutant and other kinases, a series of concentrations of the compound were tested for the inhibition.

The test system of another experiment is H1975 cells. The experiment is described as follows: Inhibition of cancer cell growth, MTT assay, H1975. As to conditions: Homo sapiens, NCI-H1975, 72 h, read-out: IC50 in H1975 cells.

Chain of EGFR (ErbB1) T790M L858R (P00533 25-1210 T790M/L858R): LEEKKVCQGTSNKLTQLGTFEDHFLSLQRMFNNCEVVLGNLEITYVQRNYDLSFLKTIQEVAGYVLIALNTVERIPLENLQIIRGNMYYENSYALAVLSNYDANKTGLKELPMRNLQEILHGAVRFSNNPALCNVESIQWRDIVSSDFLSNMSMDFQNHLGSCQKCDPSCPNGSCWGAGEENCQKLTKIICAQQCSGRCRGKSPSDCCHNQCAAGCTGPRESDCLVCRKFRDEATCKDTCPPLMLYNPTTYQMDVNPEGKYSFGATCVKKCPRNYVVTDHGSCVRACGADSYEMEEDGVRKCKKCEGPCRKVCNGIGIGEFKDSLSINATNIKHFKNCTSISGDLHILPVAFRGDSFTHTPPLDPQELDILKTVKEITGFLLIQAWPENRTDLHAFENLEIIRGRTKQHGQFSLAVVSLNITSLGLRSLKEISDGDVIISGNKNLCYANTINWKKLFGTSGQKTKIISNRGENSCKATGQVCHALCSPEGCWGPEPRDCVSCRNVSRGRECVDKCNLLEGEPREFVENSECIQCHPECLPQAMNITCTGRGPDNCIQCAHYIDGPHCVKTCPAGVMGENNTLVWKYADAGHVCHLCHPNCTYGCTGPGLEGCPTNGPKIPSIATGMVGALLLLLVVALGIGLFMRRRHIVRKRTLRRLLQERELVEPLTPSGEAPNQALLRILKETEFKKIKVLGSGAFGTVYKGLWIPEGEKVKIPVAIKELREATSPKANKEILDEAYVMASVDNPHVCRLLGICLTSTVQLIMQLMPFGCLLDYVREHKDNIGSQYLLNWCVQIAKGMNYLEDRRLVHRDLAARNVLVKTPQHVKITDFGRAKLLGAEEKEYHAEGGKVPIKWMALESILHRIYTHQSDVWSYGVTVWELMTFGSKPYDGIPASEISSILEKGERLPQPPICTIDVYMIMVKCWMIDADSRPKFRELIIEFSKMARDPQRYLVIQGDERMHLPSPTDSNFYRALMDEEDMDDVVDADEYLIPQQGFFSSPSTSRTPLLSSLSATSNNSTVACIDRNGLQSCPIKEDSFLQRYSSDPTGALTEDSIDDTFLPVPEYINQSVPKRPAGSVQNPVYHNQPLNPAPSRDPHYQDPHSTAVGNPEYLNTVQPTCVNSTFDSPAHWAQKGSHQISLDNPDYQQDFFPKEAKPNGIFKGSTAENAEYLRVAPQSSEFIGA
Chain of EGFR (ErbB1) (P00533 25-1210): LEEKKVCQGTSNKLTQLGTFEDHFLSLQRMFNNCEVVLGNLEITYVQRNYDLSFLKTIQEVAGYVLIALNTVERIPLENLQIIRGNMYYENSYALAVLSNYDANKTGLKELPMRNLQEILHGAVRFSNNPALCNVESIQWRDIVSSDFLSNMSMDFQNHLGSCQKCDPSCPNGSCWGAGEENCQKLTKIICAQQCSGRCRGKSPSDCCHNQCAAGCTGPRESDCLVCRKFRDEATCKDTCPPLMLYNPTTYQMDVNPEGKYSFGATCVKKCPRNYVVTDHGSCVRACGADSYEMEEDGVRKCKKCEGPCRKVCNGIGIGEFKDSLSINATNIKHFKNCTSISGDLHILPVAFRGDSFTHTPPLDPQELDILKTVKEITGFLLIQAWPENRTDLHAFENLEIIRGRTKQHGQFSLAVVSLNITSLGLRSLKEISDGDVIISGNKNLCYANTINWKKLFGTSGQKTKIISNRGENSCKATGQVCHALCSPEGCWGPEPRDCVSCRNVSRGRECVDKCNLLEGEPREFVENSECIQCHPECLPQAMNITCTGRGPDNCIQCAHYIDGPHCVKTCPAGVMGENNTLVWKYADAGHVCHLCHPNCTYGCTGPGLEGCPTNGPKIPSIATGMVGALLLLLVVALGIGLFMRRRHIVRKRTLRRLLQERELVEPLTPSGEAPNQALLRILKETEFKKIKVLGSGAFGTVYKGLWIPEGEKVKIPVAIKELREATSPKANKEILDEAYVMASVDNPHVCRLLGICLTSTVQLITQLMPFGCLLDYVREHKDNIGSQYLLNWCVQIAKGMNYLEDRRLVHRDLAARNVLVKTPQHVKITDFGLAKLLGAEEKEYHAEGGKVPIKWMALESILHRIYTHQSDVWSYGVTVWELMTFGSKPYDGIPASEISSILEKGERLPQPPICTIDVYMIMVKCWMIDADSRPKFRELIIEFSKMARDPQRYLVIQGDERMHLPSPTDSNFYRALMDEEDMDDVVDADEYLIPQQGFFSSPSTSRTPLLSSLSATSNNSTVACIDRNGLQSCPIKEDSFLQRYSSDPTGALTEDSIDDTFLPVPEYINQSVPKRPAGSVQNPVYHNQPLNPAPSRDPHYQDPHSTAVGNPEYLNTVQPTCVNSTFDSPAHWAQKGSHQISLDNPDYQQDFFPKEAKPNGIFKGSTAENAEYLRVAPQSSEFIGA

On to `C=CC(=O)Nc1cccc(-c2cccc3cnc(Nc4ccc(O[C@@H]5CCN(C(C)=O)C5)cc4)nc23)c1` [Example C133, (R)-N-(3-(2-((4-((1-acetylpyrrolidin-3-yl)oxy)phenyl)amino)quinazolin-8-yl)phenyl)acrylamide], for which the inhibition at 0.041 µM on EGFR (ErbB1) is < 50%. For the same molecule, on EGFR (ErbB1) T790M L858R, the inhibition at 0.0137 µM was < 50%. Besides, the IC50 in the experiment on H1975 cells was 100 to 500 nM.
Turning to `C=CC(=O)Nc1cccc(-c2cccc3cnc(Nc4ccc(N5CCC(O)C5)cc4)nc23)c1` (stereo not shown) [Example C098, N-(3-(2-((4-(3-hydroxypyrrolidin-1-yl)phenyl)amino)quinazolin-8-yl)phenyl)acrylamide], the inhibition at 0.041 µM at EGFR (ErbB1) was < 50%. The inhibition at 0.0137 µM at EGFR (ErbB1) T790M L858R is < 50%. Moreover, in the experiment on H1975 cells, the IC50 was < 100 nM.
Consider `C=CC(=O)Nc1cc(-c2cccc3cnc(Nc4ccc(N5CCN(C)CC5)cc4)nc23)n[nH]1` [Example C132, N-(3-(2-((4-(4-methylpiperazin-1-yl)phenyl)amino)quinazolin-8-yl)-1H-pyrazol-5-yl)acrylamide], for which the inhibition at 0.041 µM at EGFR (ErbB1) was < 50%. For the same molecule, at EGFR (ErbB1) T790M L858R, the inhibition at 0.0137 µM was < 50%. In addition, in the experiment with H1975 cells, the IC50 fell in the range of 100 to 500 nM.
For `C=CC(=O)Nc1cccc(-c2cccc3cnc(Nc4ccc(N[C@@H]5CCN(C(C)=O)C5)cc4)nc23)c1` [Example C130, (R)-N-(3-(2-((4-((1-acetylpyrrolidin-3-yl)amino)phenyl)amino)quinazolin-8-yl)phenyl)acrylamide], the inhibition at 0.041 µM at EGFR (ErbB1) was < 50%. Moreover, the inhibition at 0.0137 µM at EGFR (ErbB1) T790M L858R is < 50%. In the experiment on H1975 cells, the IC50 was < 100 nM.
On to `C=CC(=O)Nc1cccc(-c2cccc3cnc(Nc4ccc(N(C)CCF)cc4)nc23)c1` [Example C064, N-(3-(2-((4-((2-fluoroethyl)(methyl)amino)phenyl)amino)quinazolin-8-yl)phenyl)acrylamide], for which, at EGFR (ErbB1), the inhibition at 0.041 µM is < 50%. Further, the inhibition at 0.0137 µM at EGFR (ErbB1) T790M L858R is < 50%. Further, in the experiment with H1975 cells, the IC50 is > 500 nM.
Consider `C=CC(=O)Nc1cccc(-c2cccc3cnc(Nc4ccc(N5CCN(CCOC)CC5)cc4F)nc23)c1` [Example C153, N-(3-(2-((2-fluoro-4-(4-(2-methoxyethyl)piperazin-1-yl)phenyl)amino)quinazolin-8-yl)phenyl)acrylamide], for which the inhibition at 0.041 µM on EGFR (ErbB1) was < 50%. The inhibition at 0.0137 µM at EGFR (ErbB1) T790M L858R is < 50%. In the experiment on H1975 cells, the IC50 was < 100 nM.
Consider `C=CC(=O)Nc1cccc(-c2cccc3cnc(Nc4ccc(NCCO)cc4)nc23)c1` [Example C066, N-(3-(2-((4-((2-hydroxyethyl)amino)phenyl)amino)quinazolin-8-yl)phenyl)acrylamide], for which the inhibition at 0.041 µM at EGFR (ErbB1) was < 50%. Moreover, the inhibition at 0.0137 µM at EGFR (ErbB1) T790M L858R is < 50%. Further, the IC50 in the experiment on H1975 cells was > 500 nM.
Regarding `C=CC(=O)Nc1cccc(-c2cccc3cnc(Nc4ccc(-n5ccnc5)cc4)nc23)c1` [Example C094, N-(3-(2-((4-(1H-imidazol-1-yl)phenyl)amino)quinazolin-8-yl)phenyl)acrylamide], the inhibition at 0.041 µM at EGFR (ErbB1) was < 50%. The inhibition at 0.0137 µM at EGFR (ErbB1) T790M L858R was < 50%. Further, the IC50 with H1975 cells was in the range of 100 to 500 nM.
In the case of `C=CC(=O)Nc1cccc(-c2cccc3cnc(Nc4ccc(N5CCN(C(=O)NC)CC5)cc4)nc23)c1` [Example C083, 4-(4-((8-(3-acrylamidophenyl)quinazolin-2-yl)amino)phenyl)-N-methylpiperazine-1-carboxamide], the inhibition at 0.041 µM on EGFR (ErbB1) is < 50%. Moreover, on EGFR (ErbB1) T790M L858R, the inhibition at 0.0137 µM is > 50%. Further, the IC50 with H1975 cells lay within 100 to 500 nM.
Taken in the same sequence, the figures for `C=CC(=O)Nc1cccc(-c2cccc3cnc(Nc4ccc(N5CCNC5=O)cc4)nc23)c1` [Example C097, N-(3-(2-((4-(2-oxoimidazolidin-1-yl)phenyl)amino)quinazolin-8-yl)phenyl)acrylamide] were < 50%, < 50% and 100 to 500 nM.
On to `C=CC(=O)Nc1cccc(-c2cccc3cnc(Nc4ccc(N5CCCC5=O)cc4)nc23)c1` [Example C096, N-(3-(2-((4-(2-oxopyrrolidin-1-yl)phenyl)amino)quinazolin-8-yl)phenyl)acrylamide], for which the inhibition at 0.041 µM on EGFR (ErbB1) was < 50%. For the same molecule, the inhibition at 0.0137 µM on EGFR (ErbB1) T790M L858R was < 50%. In addition, the IC50 in the experiment with H1975 cells was < 100 nM.
Turning to `CCC(=O)Nc1cccc(-c2c(C)ccc3cnc(Nc4ccc(N5CCN(C)CC5)cc4)nc23)c1` [Example C042, N-(3-(7-methyl-2-((4-(4-methylpiperazin-1-yl)phenyl)amino)quinazolin-8-yl)phenyl)propionamide], the inhibition at 0.041 µM on EGFR (ErbB1) is > 50%. For the same molecule, on EGFR (ErbB1) T790M L858R, the inhibition at 0.0137 µM was < 50%. The IC50 in the experiment with H1975 cells was > 500 nM.
The corresponding values for `C=CC(=O)Nc1cccc(-c2cccc3cnc(Nc4ccc(N5CCN(C)C(C(=O)OC)C5)cc4)nc23)c1` (stereo not shown) [Example C089, methyl 4-(4-((8-(3-acrylamidophenyl)quinazolin-2-yl)amino)phenyl)-1-methylpiperazine-2-carboxylate] are < 50%, < 50% and 100 to 500 nM.
Taken in the same sequence, the figures for `C=CC(=O)Nc1cccc(-c2cccc3cnc(Nc4ccc(O[C@H]5CCN(C(C)=O)C5)cc4)nc23)c1` [Example C131, (S)-N-(3-(2-((4-((1-acetylpyrrolidin-3-yl)oxy)phenyl)amino)quinazolin-8-yl)phenyl)acrylamide] were < 50%, < 50% and < 100 nM.
The corresponding values for `C=CC(=O)N1CCN(c2cccc3cnc(Nc4ccc(N5CCN(C)CC5)cc4)nc23)CC1` [Example C070, 1-(4-(2-((4-(4-methylpiperazin-1-yl)phenyl)amino)quinazolin-8-yl)piperazin-1-yl)prop-2-en-1-one] are < 50%, < 50% and > 500 nM.
Consider `C=CC(=O)Nc1cccc(-c2cccc3cnc(Nc4ccc(N(C)CCF)cc4)nc23)c1F` [Example C065, N-(2-fluoro-3-(2-((4-((2-fluoroethyl)(methyl)amino)phenyl)amino)quinazolin-8-yl)phenyl)acrylamide], for which, at EGFR (ErbB1), the inhibition at 0.041 µM was < 50%. Further, on EGFR (ErbB1) T790M L858R, the inhibition at 0.0137 µM was < 50%. Moreover, the IC50 in the experiment with H1975 cells fell in the range of 100 to 500 nM.
Consider `C=CC(=O)Nc1ccc(Cl)c(-c2cccc3cnc(Nc4ccc(N5CCN(C)CC5)cc4)nc23)c1` [Example C073, N-(4-chloro-3-(2-((4-(4-methylpiperazin-1-yl)phenyl)amino)quinazolin-8-yl)phenyl)acrylamide], for which the inhibition at 0.041 µM on EGFR (ErbB1) is < 50%. At EGFR (ErbB1) T790M L858R, the inhibition at 0.0137 µM is > 50%. In addition, the IC50 in the experiment on H1975 cells lay within 100 to 500 nM.
Regarding `C=CC(=O)Nc1cccc(-c2cccc3cnc(Nc4cnc(N5CCN(C)CC5)c(Cl)c4)nc23)c1` [Example C081, N-(3-(2-((5-chloro-6-(4-methylpiperazin-1-yl)pyridin-3-yl)amino)quinazolin-8-yl)phenyl)acrylamide], the inhibition at 0.041 µM at EGFR (ErbB1) was < 50%. In addition, the inhibition at 0.0137 µM on EGFR (ErbB1) T790M L858R was > 50%. Moreover, the IC50 on EGFR (ErbB1) T790M L858R (read-out: IC50 against EGFR L858R/T790M) is < 100 nM; in the experiment on H1975 cells, 100 to 500 nM.

The record behind these values is patent US10172868B2, “Substituted quinazolines for inhibiting kinase activity” (NeuPharma, Inc., priority 2013, dated 2019).
